From article PMC8252068, “Biochemical Investigation of the Interaction of pICln, RioK1 and COPR5 with the PRMT5–MEP50 Complex” (Chembiochem, 2021)
Read-outs that look alike come from different tables or passages of the source. Where a SMILES comes first, the peptide text is derived from it. The star is where a group is joined. FITC = O=C1OC2(c3ccc(O)cc3Oc3cc(O)ccc32)c2ccc(NC(=S)*)cc21; AEEA = NCCOCCOCC(=O)O

Experiments:
[1] = molecular target: T1, native PRMT5–MEP50 complex (Homo sapiens, UniProt O14744+Q9BQA1); assay: Fluorescence polarisation direct binding assay, full-length PRMT5–MEP50; conditions: 20-21 °C, n=3
T1 construct: Full‐length PRMT5–MEP50; 6His-MBP with 3C site (N, cleaved yes); made in house; host or cells: HighFive insect cells (flashBAC baculovirus system)
T1 sequence (O14744 whole entry): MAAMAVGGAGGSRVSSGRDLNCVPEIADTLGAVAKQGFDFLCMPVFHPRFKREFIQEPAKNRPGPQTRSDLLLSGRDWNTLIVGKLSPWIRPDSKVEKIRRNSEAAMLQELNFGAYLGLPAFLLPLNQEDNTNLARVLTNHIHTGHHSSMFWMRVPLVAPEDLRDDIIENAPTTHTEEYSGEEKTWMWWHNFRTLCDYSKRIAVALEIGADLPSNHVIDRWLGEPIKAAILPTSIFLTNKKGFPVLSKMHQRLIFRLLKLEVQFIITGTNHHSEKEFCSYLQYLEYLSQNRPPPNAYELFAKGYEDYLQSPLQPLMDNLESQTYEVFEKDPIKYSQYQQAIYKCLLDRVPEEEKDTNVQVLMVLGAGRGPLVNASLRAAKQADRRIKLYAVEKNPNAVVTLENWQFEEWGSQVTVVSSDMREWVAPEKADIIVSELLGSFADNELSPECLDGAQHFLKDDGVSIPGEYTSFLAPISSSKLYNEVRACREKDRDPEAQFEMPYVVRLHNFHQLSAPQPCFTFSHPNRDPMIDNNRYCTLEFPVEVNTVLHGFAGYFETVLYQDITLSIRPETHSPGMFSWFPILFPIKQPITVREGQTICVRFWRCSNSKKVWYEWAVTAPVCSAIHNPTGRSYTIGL
T1 sequence (Q9BQA1 whole entry partner): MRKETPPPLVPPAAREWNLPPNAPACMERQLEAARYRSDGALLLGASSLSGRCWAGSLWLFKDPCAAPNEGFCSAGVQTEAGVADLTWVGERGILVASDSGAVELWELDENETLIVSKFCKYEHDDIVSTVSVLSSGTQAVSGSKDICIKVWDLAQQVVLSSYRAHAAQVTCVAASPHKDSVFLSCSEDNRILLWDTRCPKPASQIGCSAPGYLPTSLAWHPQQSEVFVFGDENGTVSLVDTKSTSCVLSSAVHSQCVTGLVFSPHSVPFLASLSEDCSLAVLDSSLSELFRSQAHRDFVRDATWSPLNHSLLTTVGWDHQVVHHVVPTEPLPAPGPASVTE
Text: (§1) All proteins were expressed at the Protein Chemistry Facility (PCF) based in the MPI Dortmund.
For expression of the proteins, all constructs were subcloned into pOPIN vectors. […]
(§2) Expression of full-length human RioK1 tagged with 6NHis-3C and co-expression of full-length human PRMT5 (N-terminal 6His-MBP with 3C) with MEP50 (N-terminal 6His-TRX with 3C), and of TIM barrel (1-292 aa) with MEP50 (both N-terminally tagged with His-TRX with 3C cleavage site) was done using the Flash Bac Expression System (Oxford Expression Technologies, UK) with HighFive insect cells in Gibco Sf-900 III SFM medium. The cells were harvested by centrifugation and lysed.
(§3) All proteins were purified at the PCF (MPI Dortmund).
(§4) Protein purification was performed on HisTrap FF crude 5 ml Ni-based column, followed by the on-column treatment with 6His-tagged HRV-3C PreScission protease, or in case of the SUMO-tagged TIM barrel, with 6His-tagged SUMO protease. The cleaved proteins were then further purified using gel filtration chromatography with the HiLoad 26/60 Superdex 75 or 200 prep grade column. PRMT5 -MEP50, TIM-MEP50 and TIM barrel were stored in a buffer containing 50 mM HEPES, 250 mM NaCl, 1 mM TCEP with the pH adjusted to 8.0, whereas, pICln was stored in a buffer of 20 mM phosphate, 100 mM NaCl, 5 mM TCEP and pH of 7.5, whereas RioK1 was stored in a buffer of 50 mM Tris, 200 mM NaCl, 10% glycerol, 1 […]
(§5) Protein Labelling with Alexa 488
(§6) To a protein solution (ca. 1 mg/ml) in 0.2 M bicarbonate buffer with 1 mM TCEP at pH 8.3, was added 10 mM Alexa 488 NHS-ester in DMSO (8 equiv), and the mixture was kept on ice, in darkness, overnight. The protein was washed eight times with buffer (50 mM HEPES, 250 mM NaCl, 1 mM TCEP, 8.0 pH) using an Amicon® Ultra-0.5 mL spin filter. Protein concentration was then determined using the NanoDrop […]
(§7) Fluorescence Polarisation (FP)
(§8) The assay was performed in a buffer of 50 mM HEPES, 250 mM NaCl, 1 mM TCEP, 0.01% (v/v) Tween 20, pH 8.0, in black, 384 well-plates, with a total volume of 10 μl per well. The analysed, FITC labelled peptides, or Alexa488-labelled pICln or RioK1, were tested at a final concentration of 1 nM, and the appropriate unlabelled protein was titrated as two-fold dilution series. The plates were incubated at 20-21 °C for 30 min in case of FITC -labelled peptides or 1-2h in case of the Alexa488-labelled protein, and analysed on a plate reader using 485 nm excitation and 535 nm emission wavelength. The assay was performed in […]

[2] = molecular target: T2, TIM–MEP50 complex (PRMT5 residues 1–292 co-expressed with MEP50) (Homo sapiens, UniProt O14744+Q9BQA1); assay: Fluorescence polarisation direct binding assay, TIM–MEP50; conditions: 20-21 °C, n=3
T2 construct: truncated PRMT5 protein (residues 1–292), corresponding to the TIM barrel domain, was either expressed alone or co‐expressed as a complex with MEP50; His-TRX with 3C cleavage site (N, cleaved yes); made in house; host or cells: HighFive insect cells (flashBAC baculovirus system)
T2 sequence (O14744 1-292): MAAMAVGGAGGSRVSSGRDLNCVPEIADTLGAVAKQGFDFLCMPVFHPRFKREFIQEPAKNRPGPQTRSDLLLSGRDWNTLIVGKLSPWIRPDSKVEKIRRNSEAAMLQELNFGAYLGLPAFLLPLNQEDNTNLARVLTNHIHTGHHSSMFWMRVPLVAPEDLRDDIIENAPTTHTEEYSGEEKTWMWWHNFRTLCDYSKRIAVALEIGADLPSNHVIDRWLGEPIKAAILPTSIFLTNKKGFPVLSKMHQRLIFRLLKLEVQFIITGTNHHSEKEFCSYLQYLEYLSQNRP
T2 sequence (Q9BQA1 whole entry partner, the tested form may be a part): as the sequence (Q9BQA1 whole entry partner) above
Protocol: as §1
(§9) For expression of the proteins, all constructs were subcloned into pOPIN vectors.
(§10) Full-length human pICln, N-terminally tagged with 6His-TRX followed by the 3C cleavage site, and TIM barrel domain (1-292 aa) of human PRMT5, N-terminally tagged with 6His-SUMO, were expressed in BL21 CodonPlus (DE3) RIPL strain of Escherichia coli. Bacteria with the respective plasmids were cultured in Terrific Broth medium. Expression of TIM barrel was auto-induced, with incubation of the starter-culture (starting OD of ~0.05) at 35 °C for 2.5h, followed by an overnight incubation (20 -24h) at 25 °C. Expression of pICln was induced at OD ~0.6-0.8 using 0.3 mM IPTG and E. coli was incubated at 20 °C for 20h. Bacteria were harvested by centrifugation and lysed.
as §2, §3, §4, §5, §6, §7, §8

[3] = molecular target: T3, TIM barrel domain of PRMT5 (residues 1–292) (Homo sapiens, UniProt O14744); assay: Fluorescence polarisation direct binding assay, isolated TIM barrel
T3 construct: barrel domain (1-292 aa) of human PRMT5, N-terminally tagged with 6His-SUMO; 6His-SUMO (N, cleaved yes); made in house; host or cells: Escherichia coli BL21 CodonPlus (DE3) RIPL
T3 sequence (O14744 1-292): as the sequence (O14744 1-292) above
Protocol: as §1, §9
as §10, with “lysed. […]” for “lysed.”
To a protein solution (ca. 1 mg/ml) in 0.2 M bicarbonate buffer with 1 mM TCEP at pH 8.3, was added 10 mM Alexa 488 NHS-ester in DMSO (8 equiv), and the mixture was kept on ice, in darkness, overnight. […] Protein concentration was then determined using the NanoDrop […]
as §7
as §8, with “wavelength.” for “wavelength. The assay was performed in”

PRMT5–MEP50 = molecular target: T4, PRMT5–MEP50 (Homo sapiens, UniProt O14744+Q9BQA1); assay: Flow induced dispersion analysis (FIDA), PRMT5–MEP50; type: binding; conditions: technical triplicate
T4 construct: Full‐length PRMT5–MEP50; 6His-MBP with 3C site (N, cleaved yes); made in house; host or cells: HighFive insect cells (flashBAC baculovirus system)
T4 sequence (O14744 whole entry): as the sequence (O14744 whole entry) above
T4 sequence (Q9BQA1 whole entry partner): as the sequence (Q9BQA1 whole entry partner) above
Protocol: (§11) Nucleodur C18 Gravity column, with a flow rate of 0.56 ml/min, and the samples obtained from the stability assay were tested using 125 mm x 3 mm, 5 μm Macherey-Nagel Nucleodur C4 Gravity at a flow rate of 1 ml/min, in both cases using elution system: 5% → 65% MeCN (0.1% TFA) in H2O (0.1% TFA) over 14 min. HRMS analyses were performed on a LTQ Orbitrap mass spectrometer (Thermo Fisher Scientific, USA) using electrospray ionization. Concentrations of PRMT5 -MEP50, TIM -MEP50 and TIM were measured with the Bradford assay, using Protein Assay Dye Reagent from Bio -Rad (Cat. #500-0006; Bio- […]

TIM–MEP50 = molecular target: T5, TIM–MEP50 (Homo sapiens, UniProt O14744+Q9BQA1); assay: Flow induced dispersion analysis (FIDA), TIM–MEP50; type: binding; conditions: technical triplicate
T5 construct: truncated PRMT5 protein (residues 1–292), corresponding to the TIM barrel domain, was either expressed alone or co‐expressed as a complex with MEP50; His-TRX with 3C cleavage site (N, cleaved yes); made in house; host or cells: HighFive insect cells (flashBAC baculovirus system)
T5 sequence (O14744 1-292): as the sequence (O14744 1-292) above
T5 sequence (Q9BQA1 whole entry partner, the tested form may be a part): as the sequence (Q9BQA1 whole entry partner) above
Protocol: as §11

[4] = FP using the native PRMT5–MEP50 complex, FITC peptide 1 nM, pH 8.0, 30 min, n.b. = no binding, read-out: K D (Table 2, peptides 1–16)
[5] = FP direct binding, FITC peptide 1 nM, protein titrated, HEPES buffer pH 8.0, 30 min, n.b. = no binding, read-out: K D value, TIM–MEP50

| Kd [1, 4] | Kd [2, 5] | Kd [3] | Compound | also measured |
| --- | --- | --- | --- | --- |
| 522 ± 45 nM | 840 ± 150 nM | 2800 ± 70 nM | CC(C)[C@H](NC(=O)[C@H](CCCNC(=N)N)NC(=O)[C@H](CO)NC(=O)COCCOCCNC(=S)Nc1ccc2c(c1)C(=O)OC21c2ccc(O)cc2Oc2cc(O)ccc21)C(=O)N[C@H](C(=O)N1CCC[C@H]1C(=O)NCC(=O)N[C@@H](CCC(N)=O)C(=O)N[C@@H](Cc1ccccc1)C(=O)N[C@@H](CC(=O)O)C(=O)N[C@@H](CC(=O)O)C(=O)N[C@@H](C)C(=O)N[C@@H](CC(=O)O)C(N)=O)C(C)C [compound 1] ({FITC-AEEA}-SRVVPGQFDDAD-NH2) | – |
| – | – | – | Fitc‐O2Oc‐PTVAGQF‐NH2 [compound 4, DAB1 derived, fluorescently labelled linear peptide] | K D value, Full‐length PRMT5–MEP50 ([1]; FP direct binding, FITC peptide 1 nM, protein titrated two-fold, 50 mM HEPES, 250 mM NaCl, 1 mM TCEP, 0.01% Tween 20, pH 8.0, 30 min, n.b. = no binding): did not have affinity and n.b.; K D (Table 2, peptides 1–16) ([1]; FP using the native PRMT5–MEP50 complex, FITC peptide 1 nM, pH 8.0, 30 min, n.b. = no binding): n.b.; K D value, TIM–MEP50 ([2]; FP direct binding, FITC peptide 1 nM, protein titrated, HEPES buffer pH 8.0, 30 min, n.b. = no binding): did not have affinity and n.b. |
| 1140 ± 38 nM | 2100 ± 150 nM | 5800 ± 110 nM | CC(C)[C@H](NC(=O)[C@@H](NC(=O)[C@@H]1CCCN1C(=O)[C@@H](NC(=O)COCCOCCNC(=S)Nc1ccc2c(c1)C(=O)OC21c2ccc(O)cc2Oc2cc(O)ccc21)[C@@H](C)O)[C@@H](C)O)C(=O)N[C@@H](C)C(=O)NCC(=O)N[C@@H](CCC(N)=O)C(=O)N[C@@H](Cc1ccccc1)C(=O)N[C@@H](CCC(=O)O)C(=O)N[C@@H](CC(=O)O)C(=O)N[C@@H](C)C(=O)N[C@@H](CC(=O)O)C(N)=O [compound 2] ({FITC-AEEA}-TPTVAGQFEDAD-NH2) | – |
| – | – | – | pICln-Alexa488: full-length human pICln labelled with the fluorescent dye Alexa488 | Kd (PRMT5–MEP50; Supplement Table S4, indicator 10 nM, 25 °C, read-out: Affinity constant, PRMT5-MEP50 (Table S4, FIDA)): 39.3 nM; Kd (PRMT5–MEP50; indicator (Alexa488-labelled protein) 10 nM, HEPES buffer pH 8.0, 0.01% Tween 20, 25 °C, read-out: K D for PRMT5–MEP50 (FIDA)): 39.3 nM; Kd ([1]; FP, Alexa488-labelled protein 1 nM, unlabelled complex titrated, pH 8.0, 1-2h, read-out: K D of Alexa488-labelled adaptor protein for PRMT5–MEP50 (FP)): 9.1 ± 1.5 nM; Kd (TIM–MEP50; Supplement Table S4, indicator 10 nM, 25 °C, read-out: Affinity constant, TIM-MEP50 (Table S4, FIDA)): 64.1 nM; Kd (TIM–MEP50; indicator (Alexa488-labelled protein) 10 nM, HEPES buffer pH 8.0, 0.01% Tween 20, 25 °C, read-out: K D for TIM–MEP50 (FIDA)): 64.1 nM; Kd ([2]; FP, Alexa488-labelled protein 1 nM, unlabelled complex titrated, pH 8.0, 1-2h, read-out: K D of Alexa488-labelled adaptor protein for TIM–MEP50 (FP)): 4.1 ± 0.6 nM |
| 549 ± 119 nM | 460 nM | 2400 ± 320 nM | CSCC[C@H](NC(=O)COCCOCCNC(=S)Nc1ccc2c(c1)C(=O)OC21c2ccc(O)cc2Oc2cc(O)ccc21)C(=O)N[C@H](C(=O)N[C@@H](Cc1ccccc1)C(=O)N[C@@H](CCC(=O)O)C(=O)N[C@H](C(=O)NCC(=O)N[C@@H](CCC(N)=O)C(=O)N[C@@H](Cc1ccccc1)C(=O)N[C@@H](CC(=O)O)C(=O)N[C@@H](CC(=O)O)C(=O)N[C@@H](C)C(=O)N[C@@H](CCC(=O)O)C(=O)N[C@@H](CC(=O)O)C(N)=O)[C@@H](C)O)C(C)C [compound 3] ({FITC-AEEA}-MVFETGQFDDAED-NH2) | – |
